Data on 25 molecules can be found in patent US9296720B2, “Carboxamide-substituted heteroaryl-pyrazoles and the use thereof” (AiCuris GmbH & Co. KG, priority 2011, dated 2016).

By EC50 is commonly meant the concentration that produces a half-maximal response.

Common to all, as to format: cell-based
One test relates to HIV-1NL4-3 K103N-Y181C. The test can be described thus: Luminescence reduction assay, MT4 cells infected with HIV-1NL4-3 luciferase reporter virus, RT mutant K103N-Y181C. The note with it: Human immunodeficiency virus 1, MT4, read-out: EC50 (μM) MT4 Cells HIV-1NL4-3 K103N-Y181C 2% FCS, MT4 cells, HIV-1NL4-3 K103N-Y181C, 2% FCS. The procedure, abridged: (§1)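 MT4 cells pellet-infected 2 h at 37° C with HIV-1NL4-3 reporter virus (lu164 replacing nef; wild type or site-directed RT mutants), washed, then incubated with compound dilutions (1% DMSO, 2% or 10% FCS) for 5 days. Secreted luciferase read with coelenterazine buffer; EC50 = concentration halving RLU versus untreated infected cells.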
In general terms: A reporter such as luciferase makes a cellular process visible.

The subject of the next test is HIV-1NL4-3 Wild Type. The test can be described thus: Luminescence reduction assay, MT4 cells infected with HIV-1NL4-3 luciferase reporter virus, wild type. To be noted: Human immunodeficiency virus 1, MT4, MT4 cells, 2% FCS. The method in brief: as §1
A further test has as its system HIV-1LAI Wild Type. The test can be described thus: AlamarBlue viability assay, HIV-1LAI-infected MT4 cells. To be noted: Human immunodeficiency virus 1, MT4, MT4 cells, 10% FCS. The procedure, abridged: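 MT4 cells infected with HIV-1LAI (MOI 0.01, supernatant infection) cultured 5 days at 37 °C with compounds in RPMI with 2% or 10% FCS, 1% DMSO final. AlamarBlue fluorescence after 3 h; EC50 as 50% protection relative to uninfected cells, CC50 from high-concentration cytotoxicity.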
A general note: Alamar Blue is a resazurin reagent that responds to reducing activity.

For the molecule `O=C(c1cc(-c2cc(Cl)cc(OC(F)(F)F)c2)n(-c2cccnc2)n1)N1CCS(=O)(=O)C1` [Example 79, {5-[3-Chloro-5-(trifluoromethoxy)phenyl]-1-(pyridin-3-yl)-1H-pyrazol-3-yl}(1,1-dioxido-1,3-thiazolidin-3-yl)methanone], the figures for the EC50 with HIV-1NL4-3 K103N-Y181C, with HIV-1NL4-3 Wild Type and in the test on HIV-1LAI Wild Type were 0.125 µM, 0.038 µM and 0.244 µM, respectively.
Regarding `O=C(c1cc(-c2cc(Cl)cc(OC(F)(F)F)c2)n(-c2ccc[n+](O)c2)n1)N1CCS(=O)(=O)C1` [Example 80, {5-[3-Chloro-5-(trifluoromethoxy)phenyl]-1-(1-oxidopyridin-3-yl)-1H-pyrazol-3-yl}(1,1-dioxido-1,3-thiazolidin-3-yl)methanone], the EC50 is 0.075 µM with HIV-1NL4-3 K103N-Y181C, 0.164 µM with HIV-1NL4-3 Wild Type and 2.79 µM with HIV-1LAI Wild Type.
Consider `O=C1CN(C(=O)c2cc(-c3cc(Cl)cc(OC(F)F)c3)n(-c3cccnc3)n2)CN1` [Example 81, 1-({5-[3-Chloro-5-(difluoromethoxy)phenyl]-1-(pyridin-3-yl)-1H-pyrazol-3-yl}carbonyl)imidazolidin-4-one], for which the EC50 in the test on HIV-1NL4-3 K103N-Y181C was 0.008 µM; with HIV-1NL4-3 Wild Type it was 0.003 µM; with HIV-1LAI Wild Type, 0.015 µM.
Regarding `O=C(c1cc(-c2cc(Cl)cc(OC(F)F)c2)n(-c2cccnc2)n1)N1CCSC1` [Example 82, {5-[3-Chloro-5-(difluoromethoxy)phenyl]-1-(pyridin-3-yl)-1H-pyrazol-3-yl}(1,3-thiazolidin-3-yl)methanone], the EC50 in the test with HIV-1NL4-3 K103N-Y181C is 0.307 µM; in the test on HIV-1NL4-3 Wild Type it was 0.016 µM; in the test on HIV-1LAI Wild Type, 0.348 µM.
As to `COc1cc(OC(F)(F)F)cc(-c2cc(C(=O)N3CNC(=O)C3)nn2-c2cccnc2)c1` [Example 84, 1-({5-[3-Methoxy-5-(trifluoromethoxy)phenyl]-1-(pyridin-3-yl)-1H-pyrazol-3-yl}carbonyl)imidazolidin-4-one], the 50% effective concentration (EC50) with HIV-1NL4-3 K103N-Y181C worked out at 0.008 µM; with HIV-1NL4-3 Wild Type, 0.01 µM; in the test on HIV-1LAI Wild Type, 0.048 µM.
As to `COc1cc(OC(F)(F)F)cc(-c2cc(C(=O)N3CCNC(=O)C3)nn2-c2cccnc2)c1` [Example 85, 4-({5-[3-Methoxy-5-(trifluoromethoxy)phenyl]-1-(pyridin-3-yl)-1H-pyrazol-3-yl}carbonyl)piperazin-2-one], the 50% effective concentration (EC50) amounted to 0.123 µM in the test with HIV-1NL4-3 K103N-Y181C, 0.05 µM in the test with HIV-1NL4-3 Wild Type and 0.302 µM in the test with HIV-1LAI Wild Type.
On to `COc1cc(OC(F)(F)F)cc(-c2cc(C(=O)N3CNC(=O)C3)nn2-c2ccnc(Cl)c2)c1` [Example 86, 1-({1-(2-Chloropyridin-4-yl)-5-[3-methoxy-5-(trifluoromethoxy)phenyl]-1H-pyrazol-3-yl}carbonyl)imidazolidin-4-one], for which the values for the EC50 in the test on HIV-1NL4-3 K103N-Y181C, with HIV-1NL4-3 Wild Type and with HIV-1LAI Wild Type were 0.011 µM, 0.014 µM and 0.065 µM, respectively.
`COc1cc(OC(F)(F)F)cc(-c2cc(C(=O)N3CCNC(=O)C3)nn2-c2ccnc(Cl)c2)c1` [Example 87, 4-({1-(2-Chloropyridin-4-yl)-5-[3-methoxy-5-(trifluoromethoxy)phenyl]-1H-pyrazol-3-yl}carbonyl)piperazin-2-one]: the 50% effective concentration (EC50) was 0.068 µM in the test on HIV-1NL4-3 K103N-Y181C, 0.11 µM with HIV-1NL4-3 Wild Type and 0.618 µM with HIV-1LAI Wild Type.
For `N#Cc1cc(OC(F)(F)F)cc(-c2cc(C(=O)N3CNC(=O)C3)nn2-c2cccnc2)c1` [Example 88, 3-{3-[(4-Oxoimidazolidin-1-yl)carbonyl]-1-(pyridin-3-yl)-1H-pyrazol-5-yl}-5-(trifluoromethoxy)benzonitrile], the EC50 in the test on HIV-1NL4-3 K103N-Y181C amounted to 0.026 µM; in the test on HIV-1NL4-3 Wild Type, 0.015 µM; in the test with HIV-1LAI Wild Type it was 0.186 µM.
For `N#Cc1cc(OC(F)(F)F)cc(-c2cc(C(=O)N3CCNC(=O)C3)nn2-c2cccnc2)c1` [Example 89, 3-{3-[(3-Oxopiperazin-1-yl)carbonyl]-1-(pyridin-3-yl)-1H-pyrazol-5-yl}-5-(trifluoromethoxy)benzonitrile], in that order: 0.523 µM, 0.258 µM and 0.129 µM.
With `O=C1CN(C(=O)c2cc(-c3cc(F)cc(Br)c3)n(-c3cccnc3)n2)CN1` [Example 90, 1-{[5-(3-Bromo-5-fluorophenyl)-1-(pyridin-3-yl)-1H-pyrazol-3-yl]carbonyl}imidazolidin-4-one], the EC50 in the test on HIV-1NL4-3 K103N-Y181C stood at 0.033 µM; with HIV-1NL4-3 Wild Type it was 0.003 µM; with HIV-1LAI Wild Type, 0.011 µM.
As for `O=C1CN(C(=O)c2cc(-c3cc(F)cc(Br)c3)n(-c3cccnc3)n2)CCN1` [Example 91, 4-{[5-(3-Bromo-5-fluorophenyl)-1-(pyridin-3-yl)-1H-pyrazol-3-yl]carbonyl}piperazin-2-one], the EC50 in the test with HIV-1NL4-3 K103N-Y181C came out at 0.392 µM; in the test with HIV-1NL4-3 Wild Type it was 0.006 µM; in the test on HIV-1LAI Wild Type, 0.055 µM.
Regarding `O=C1CN(C(=O)c2cc(-c3cc(F)cc(Br)c3)n(-c3ccnc(Cl)c3)n2)CN1` [Example 92, 1-{[5-(3-Bromo-5-fluorophenyl)-1-(2-chloropyridin-4-yl)-1H-pyrazol-3-yl]carbonyl}imidazolidin-4-one], the EC50 in the test on HIV-1NL4-3 K103N-Y181C came out at 0.033 µM; in the test on HIV-1NL4-3 Wild Type it was 0.005 µM; in the test with HIV-1LAI Wild Type, 0.026 µM.
Consider `O=C1CN(C(=O)c2cc(-c3cc(F)cc(Br)c3)n(-c3ccnc(Cl)c3)n2)CCN1` [Example 93, 4-{[5-(3-Bromo-5-fluorophenyl)-1-(2-chloropyridin-4-yl)-1H-pyrazol-3-yl]carbonyl}piperazin-2-one], for which the EC50 in the test on HIV-1NL4-3 K103N-Y181C was 0.256 µM; with HIV-1NL4-3 Wild Type, 0.016 µM; in the test on HIV-1LAI Wild Type it was 0.137 µM.
In the case of `COc1cc(Br)cc(-c2cc(C(=O)N3CNC(=O)C3)nn2-c2cccnc2)c1` [Example 94, 1-{[5-(3-Bromo-5-methoxyphenyl)-1-(pyridin-3-yl)-1H-pyrazol-3-yl]carbonyl}imidazolidin-4-one], the EC50 in the test with HIV-1NL4-3 K103N-Y181C is 0.012 µM; in the test with HIV-1NL4-3 Wild Type, less than 0.002 µM; in the test on HIV-1LAI Wild Type it was 0.006 µM.
As for `COc1cc(Br)cc(-c2cc(C(=O)N3CCNC(=O)C3)nn2-c2cccnc2)c1` [Example 95], the results for the EC50 in the test with HIV-1NL4-3 K103N-Y181C, in the test on HIV-1NL4-3 Wild Type and in the test on HIV-1LAI Wild Type were 0.054 µM, 0.005 µM and 0.033 µM, respectively.
As to `COc1cc(Br)cc(-c2cc(C(=O)N3CNC(=O)C3)nn2-c2ccnc(Cl)c2)c1` [Example 96, 1-{[5-(3-Bromo-5-methoxyphenyl)-1-(2-chloropyridin-4-yl)-1H-pyrazol-3-yl]carbonyl}imidazolidin-4-one], the EC50 with HIV-1NL4-3 K103N-Y181C amounted to 0.02 µM; in the test with HIV-1NL4-3 Wild Type, 0.004 µM; in the test on HIV-1LAI Wild Type, 0.016 µM.
Turning to `COc1cc(Br)cc(-c2cc(C(=O)N3CCNC(=O)C3)nn2-c2ccnc(Cl)c2)c1` [Example 97, 4-{[5-(3-Bromo-5-methoxyphenyl)-1-(2-chloropyridin-4-yl)-1H-pyrazol-3-yl]carbonyl}piperazin-2-one], the figures for the concentration giving a half-maximal response (EC50) in the test with HIV-1NL4-3 K103N-Y181C, in the test with HIV-1NL4-3 Wild Type and in the test with HIV-1LAI Wild Type were 0.116 µM, 0.013 µM and 0.068 µM, respectively.
Regarding `O=C1CN(C(=O)c2cc(-c3cncc(F)c3)n(-c3ccc(F)c(Cl)c3)n2)CN1` [Example 98, 1-{[1-(3-Chloro-4-fluorophenyl)-5-(5-fluoropyridin-3-yl)-1H-pyrazol-3-yl]carbonyl}imidazolidin-4-one], the concentration for a half-maximal effect (EC50) in the test on HIV-1NL4-3 K103N-Y181C is 0.032 µM; with HIV-1NL4-3 Wild Type, 0.018 µM; in the test with HIV-1LAI Wild Type it was 0.056 µM.
For the molecule `O=C1CN(C(=O)c2cc(-c3cncc(F)c3)n(-c3ccc(F)c(Cl)c3)n2)CCN1` [Example 99, 4-{[1-(3-Chloro-4-fluorophenyl)-5-(5-fluoropyridin-3-yl)-1H-pyrazol-3-yl]carbonyl}piperazin-2-one], the EC50 turned out to be 1.31 µM in the test with HIV-1NL4-3 K103N-Y181C, 0.113 µM in the test on HIV-1NL4-3 Wild Type and 0.258 µM in the test on HIV-1LAI Wild Type.
As to `O=C1CN(C(=O)c2cc(-c3cncc(Cl)c3)n(-c3ccc(F)c(Cl)c3)n2)CN1` [Example 100, 1-{[1-(3-Chloro-4-fluorophenyl)-5-(5-chloropyridin-3-yl)-1H-pyrazol-3-yl]carbonyl}imidazolidin-4-one], the concentration giving a half-maximal response (EC50) turned out to be 0.009 µM with HIV-1NL4-3 K103N-Y181C, 0.005 µM in the test on HIV-1NL4-3 Wild Type and 0.01 µM in the test on HIV-1LAI Wild Type.
`O=C1CN(C(=O)c2cc(-c3cncc(Cl)c3)n(-c3ccc(F)c(Cl)c3)n2)CCN1` [Example 101, 4-{[1-(3-Chloro-4-fluorophenyl)-5-(5-chloropyridin-3-yl)-1H-pyrazol-3-yl]carbonyl}piperazin-2-one]: the EC50 in the test with HIV-1NL4-3 K103N-Y181C came out at 0.088 µM; with HIV-1NL4-3 Wild Type, 0.016 µM; with HIV-1LAI Wild Type it was 0.034 µM.
For the molecule `COc1cncc(-c2cc(C(=O)N3CNC(=O)C3)nn2-c2ccc(F)c(Cl)c2)c1` [Example 102, 1-{[1-(3-Chloro-4-fluorophenyl)-5-(5-methoxypyridin-3-yl)-1H-pyrazol-3-yl]carbonyl}imidazolidin-4-one], the results for the EC50 in the test on HIV-1NL4-3 K103N-Y181C, with HIV-1NL4-3 Wild Type and in the test with HIV-1LAI Wild Type were 0.022 µM, 0.026 µM and 0.111 µM, respectively.
Turning to `COc1cncc(-c2cc(C(=O)N3CCNC(=O)C3)nn2-c2ccc(F)c(Cl)c2)c1` [Example 103, 4-{[1-(3-Chloro-4-fluorophenyl)-5-(5-methoxypyridin-3-yl)-1H-pyrazol-3-yl]carbonyl}piperazin-2-one], the EC50 in the test on HIV-1NL4-3 K103N-Y181C amounted to 0.375 µM; in the test on HIV-1NL4-3 Wild Type, 0.205 µM; with HIV-1LAI Wild Type it was 0.785 µM.
For the molecule `O=C(c1cc(-c2cc(F)cc(OC(F)(F)F)c2)n(-c2ccnc(Cl)c2)n1)N1CCSC1` [Example 104, {1-(2-Chloropyridin-4-yl)-5-[3-fluoro-5-(trifluoromethoxy)phenyl]-1H-pyrazol-3-yl}(1,3-thiazolidin-3-yl)methanone], the 50% effective concentration (EC50) in the test on HIV-1NL4-3 K103N-Y181C was not below 3.3 µM; with HIV-1NL4-3 Wild Type, 0.58 µM; in the test on HIV-1LAI Wild Type, more than 3.3 µM.
